Experimental data taken from US8703938B2, “Hepatitis C virus inhibitors” (Enanta Pharmaceuticals, Inc., priority 2009, dated 2014).

Test system: HCV 1b genotype replicon
Assay: HCV genotype-1b replicon assay (qRT-PCR or luciferase)
Type: cell-based
Conditions: Hepatitis C virus, read-out: Genotype-1b replicon EC50 Range
Source text: HCV replicon cell lines (kindly provided by R. Bartenschlager) isolated from colonies as described by Lohman et. al. (Lohman et al. (1999) Science 285: 110-113, expressly incorporated by reference in its entirety) and used for all experiments. The HCV replicon has the nucleic acid sequence set forth in EMBL Accession No.: AJ242651, the coding sequence of which is from nucleotides 1801 to 8406.
The coding sequence of the published HCV replicon was synthesized and subsequently assembled in a modified plasmid pBR322 (Promega, Madison, Wis.) using standard molecular biology techniques. […]
EC50 values of single agent compounds and combinations were determined by HCV RNA detection using quantitative RT-PCR, according to the manufacturer's instructions, with a TAQMAN® One-Step RT-PCR Master Mix Reagents Kit (Cat # AB 4309169, Applied Biosystems) on an ABI Model 7500 thermocycler. The TaqMan primers used for detecting and quantifying HCV RNA were obtained from Integrated DNA Technologies. HCV RNA was normalized to GAPDH RNA levels in drug-treated cells, which was detected and quantified using the Human GAPDH Endogenous Control Mix (Applied Biosystems, AB 4310884E). […] Chemical agent cytotoxicity was evaluated using an MTS assay according to the manufacturer's directions (Promega). […]

Structure (SMILES): COC(=O)N[C@H](C(=O)N1CCC(C(=O)Nc2ccc(-c3ccc(NC(=O)C4CCN(C(=O)[C@@H](NC(=O)OC)C(C)C)C4)cc3)cc2)C1)C(C)C (stereo partly shown) [Example 295]
- EC50: > 10 nM
